Measurements from US7678794B2, “Potentiators of glutamate receptors” (Eli Lilly and Company, priority 2004, dated 2010).

Target: T1, human CysLT1 receptor (Homo sapiens, UniProt Q9Y271)
T1 construct: expressed in transfected cells; host or cells: AV12-664 (ATCC-9595)
T1 sequence (Q9Y271 1-337): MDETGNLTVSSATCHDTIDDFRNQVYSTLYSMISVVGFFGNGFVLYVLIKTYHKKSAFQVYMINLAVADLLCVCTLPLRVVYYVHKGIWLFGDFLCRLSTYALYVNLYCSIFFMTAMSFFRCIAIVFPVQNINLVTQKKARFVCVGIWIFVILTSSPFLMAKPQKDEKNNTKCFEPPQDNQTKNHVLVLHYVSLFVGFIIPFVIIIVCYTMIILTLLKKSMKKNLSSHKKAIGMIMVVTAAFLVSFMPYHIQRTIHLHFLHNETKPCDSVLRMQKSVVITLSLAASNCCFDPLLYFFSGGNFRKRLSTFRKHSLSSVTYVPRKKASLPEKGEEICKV
Test: Antagonism of LTD4-induced increase in intracellular calcium within a CysLT1 receptor expressing cell line (FLIPR)
Assay type: cell-based
Settings: AV12-664 cells expressing human CysLT1; 6 nM LTD4; read-out: antagonism of CysLT1 receptors, IC50
Text: Antagonism of Cysteinyl-leukotriene D4 (LTD4)—Induced Increase in Intracellular Calcium within a Cysteinyl-Leukotriene 1 (CysLT1) Receptor Expressing Cell Line
Confluent cultures are passaged weekly. Intracellular calcium levels are monitored in the CysLT1-expressing cells with the addition of LTD4, with or without prior exposure to the compounds being tested as antagonists with a Fluorometric Imaging Plate Reader (FLIPR, Molecular Devices). The following buffer is used throughout as an assay buffer: Hanks Buffered Saline Solution without phenol red (GIBCO), with 10 mM HEPES pH 7.4. Cells that had been plated 48 hours prior at a density of 20-25,000 cells per well in a 96-well plate are loaded with a calcium-sensitive dye for 90 minutes at 25° C. Fluo-3 (2 mM in DMSO, Molecular Probes) is mixed with an equal volume of 10% pluronic acid in DMSO, and diluted to 8 μM in the buffer described above containing 10% fetal bovine serum to make the loading buffer. Following loading of the cells, the buffer is removed and replaced with assay buffer prior to drug addition and monitoring on the FLIPR for several minutes. […] Least squares curve fitting with a four-parameter equation is applied to the resulting dose-% inhibition curve to determine the resulting IC50 values.

| Structure (SMILES) | IC50 [nM] |
| --- | --- |
| CCCc1c(OCc2cccc(S(=O)(=O)Nc3cccc(-c4nn[nH]n4)c3)c2)ccc(C(C)=O)c1O [Example 12, 3-(4-Acetyl-3-hydroxy-2-propyl-phenoxymethyl)-N-[3-(2 H-tetrazol-5-yl)-phenyl]-benzene-sulfonamide] | < 500 |
| CCCc1c(OCc2ccc(NC(=O)Nc3cccc(C(=O)O)c3)cc2)ccc(C(C)=O)c1O [Example 1, 3-{3-[4-(4-acetyl-3-hydroxy-2-propyl-phenoxymethyl)-phenyl]-ureido}-benzoic acid] | < 500 |
| CCCc1c(OCc2ccc(S(=O)(=O)Nc3ccccc3-c3nn[nH]n3)cc2)ccc(C(C)=O)c1O [Example 10, 4-(4-Acetyl-3-hydroxy-2-propyl-phenoxymethyl)-N-[2-(2 H-tetrazol-5-yl)-phenyl]-benzene-sulfonamide] | < 500 |
| CCCc1c(OCc2cccc(S(=O)(=O)Nc3ccccc3-c3nn[nH]n3)c2)ccc(C(C)=O)c1O [Example 13, 3-(4-Acetyl-3-hydroxy-2-propyl-phenoxymethyl)-N-[2-(2 H-tetrazol-5-yl)-phenyl]-benzene-sulfonamide] | < 500 |
